Results reported in US20150105252A1, “SUBSTITUTED PYRAZOLES AS HERBICIDES” (E I DU PONT DE NEMOURS AND COMPANY, priority 2013, published 2015).

How the values were obtained:
velvetleaf [1] = assay: Test A postemergence; assay type: in vivo, Abutilon theophrasti
Procedure, shortened: (§1)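 Both timings tested concurrently in loam/sand soil: preemergence by directed soil spray, postemergence on plants of 2–10 cm at the one- to two-leaf stage. Greenhouse holding period was approximately 10 days before visual injury assessment (0–100, 0 = no effect).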

barnyardgrass [2] = assay: Test A postemergence; assay type: in vivo, Echinochloa crus-galli
Procedure, shortened: as §1

corn [3] = assay: Test A postemergence; assay type: in vivo, Zea mays
Procedure, shortened: as §1

ducksalad = assay: Test B flood; assay type: in vivo, Heteranthera limosa; details: 250 g ai/ha, visual rating on 0 to 100 scale (0 no effect, 100 complete control), 13 to 15 days
Procedure, shortened: (§2)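 2-leaf plants; pots flooded 3 cm over soil; compound added to paddy water, depth kept constant. Greenhouse 13–15 d. Visual rating vs controls, 0–100 scale (100 = complete control); dash = no result.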

morningglory [4] = assay: Test A preemergence; assay type: in vivo, Ipomoea spp.; details: preemergence
Procedure, shortened: as §1

corn [5] = assay: Test A preemergence; assay type: in vivo, Zea mays; details: preemergence
Procedure, shortened: as §1

pigweed [6] = assay: Test A preemergence; assay type: in vivo, Amaranthus retroflexus; details: preemergence
Procedure, shortened: as §1

barnyardgrass [7] = assay: Test B flood; assay type: in vivo, Echinochloa crus-galli; details: 250 g ai/ha, visual rating on 0 to 100 scale (0 no effect, 100 complete control), 13 to 15 days
Procedure, shortened: as §2

morningglory [8] = assay: Test A postemergence; assay type: in vivo, Ipomoea spp.
Procedure, shortened: as §1

velvetleaf [9] = assay: Test A preemergence; assay type: in vivo, Abutilon theophrasti; details: preemergence
Procedure, shortened: as §1

barnyardgrass [10] = assay: Test A preemergence; assay type: in vivo, Echinochloa crus-galli; details: preemergence
Procedure, shortened: as §1

wheat [11] = assay: Test A postemergence; assay type: in vivo, Triticum aestivum
Procedure, shortened: as §1

crabgrass, large [12] = assay: Test A preemergence; assay type: in vivo, Digitaria sanguinalis; details: preemergence
Procedure, shortened: as §1

pigweed [13] = assay: Test A postemergence; assay type: in vivo, Amaranthus retroflexus
Procedure, shortened: as §1

crabgrass, large [14] = assay: Test A postemergence; assay type: in vivo, Digitaria sanguinalis
Procedure, shortened: as §1

wheat [15] = assay: Test A preemergence; assay type: in vivo, Triticum aestivum; details: preemergence
Procedure, shortened: as §1

foxtail, giant [16] = assay: Test A postemergence; assay type: in vivo, Setaria faberii
Procedure, shortened: as §1

sedge, umbrella = assay: Test B flood; assay type: in vivo, Cyperus difformis; details: 250 g ai/ha, visual rating on 0 to 100 scale (0 no effect, 100 complete control), 13 to 15 days
Procedure, shortened: as §2

foxtail, giant [17] = assay: Test A preemergence; assay type: in vivo, Setaria faberii; details: preemergence
Procedure, shortened: as §1

rice = assay: Test B flood; assay type: in vivo, Oryza sativa; details: 250 g ai/ha, visual rating on 0 to 100 scale (0 no effect, 100 complete control), 13 to 15 days
Procedure, shortened: as §2

[18] = Postemergence, 500 g ai/ha, visual rating after approx. 10 days, 0 to 100 scale (0 no effect, 100 complete control)
[19] = postemergence, 125 g ai/ha, about 10 days, visual rating on 0 to 100 scale (0 no effect, 100 complete control)
[20] = 125 g ai/ha, visual injury, 0 to 100 scale, approx. 10 days
[21] = 500 g ai/ha, visual injury after approx. 10 days, 0 to 100 scale (0 no effect, 100 complete control)

**Q.** With CCc1cc(C(=O)NC2CC2)nn1Cc1cccc(C(F)(F)F)n1 [Compound 91] as the compound, how does the “Velvetleaf plant response rating” value (velvetleaf [1]; [18]) read?
**A.** Its value is 10.

**Q.** What about the “Velvetleaf plant response rating” value (velvetleaf [1]; [19]) of the same compound?
**A.** The value was 10.

**Q.** What about the “Barnyardgrass plant response rating” value (barnyardgrass [2]; Postemergence, 125 g ai/ha, 0 to 100 scale, 0 no effect, 100 complete control) of the same compound?
**A.** The value was 0.

**Q.** And the “Barnyardgrass plant response rating” value (barnyardgrass [2]; [18])?
**A.** Its value is 10.

**Q.** And the “Corn plant response rating” value (corn [3]; [18])?
**A.** Its value is 10.

**Q.** What about the “Corn plant response rating” value (corn [3]; [19]) of the same compound?
**A.** Its value is 0.

**Q.** What about the “Plant response rating, Ducksalad” value (ducksalad) of the same compound?
**A.** Its value is 0.

**Q.** What about the “Morningglory plant response rating” value (morningglory [4]; [20]) of the same compound?
**A.** Its value is 0.

**Q.** And the “Morningglory plant response rating” value (morningglory [4]; [21])?
**A.** Its value is 0.

**Q.** And the “Corn plant response rating” value (corn [5]; [20])?
**A.** Its value is 0.

**Q.** What about the “Corn plant response rating” value (corn [5]; [21]) of the same compound?
**A.** Its value is 0.

**Q.** And the “Pigweed plant response rating” value (pigweed [6]; [20])?
**A.** The value was 0.

**Q.** What about the “Pigweed plant response rating” value (pigweed [6]; [21]) of the same compound?
**A.** Its value is 40.

**Q.** And the “Plant response rating, Barnyardgrass” value (barnyardgrass [7])?
**A.** Its value is 0.

**Q.** What about the “Morningglory plant response rating” value (morningglory [8]; [18]) of the same compound?
**A.** The value was 20.

**Q.** And the “Morningglory plant response rating” value (morningglory [8]; [19])?
**A.** Its value is 10.

**Q.** And the “Velvetleaf plant response rating” value (velvetleaf [9]; [20])?
**A.** Its value is 0.

**Q.** What about the “Velvetleaf plant response rating” value (velvetleaf [9]; [21]) of the same compound?
**A.** The value was 0.

**Q.** What about the “Barnyardgrass plant response rating” value (barnyardgrass [10]; [20]) of the same compound?
**A.** The value was 0.

**Q.** And the “Barnyardgrass plant response rating” value (barnyardgrass [10]; [21])?
**A.** The value was 0.

**Q.** What about the “Wheat plant response rating” value (wheat [11]; [18]) of the same compound?
**A.** The value was 0.

**Q.** What about the “Wheat plant response rating” value (wheat [11]; [19]) of the same compound?
**A.** The value was 0.

**Q.** What about the “Crabgrass, Large plant response rating” value (crabgrass, large [12]; [20]) of the same compound?
**A.** The value was 0.

**Q.** What about the “Crabgrass, Large plant response rating” value (crabgrass, large [12]; [21]) of the same compound?
**A.** Its value is 20.

**Q.** And the “Pigweed plant response rating” value (pigweed [13]; [18])?
**A.** The value was 40.

**Q.** And the “Pigweed plant response rating” value (pigweed [13]; [19])?
**A.** Its value is 20.

**Q.** What about the “Crabgrass, Large plant response rating” value (crabgrass, large [14]; [18]) of the same compound?
**A.** Its value is 10.

**Q.** What about the “Crabgrass, Large plant response rating” value (crabgrass, large [14]; [19]) of the same compound?
**A.** The value was 0.

**Q.** And the “Wheat plant response rating” value (wheat [15]; [20])?
**A.** The value was 0.

**Q.** What about the “Wheat plant response rating” value (wheat [15]; [21]) of the same compound?
**A.** Its value is 0.

**Q.** What about the “Foxtail, Giant plant response rating” value (foxtail, giant [16]; [18]) of the same compound?
**A.** Its value is 10.

**Q.** And the “Foxtail, Giant plant response rating” value (foxtail, giant [16]; [19])?
**A.** The value was 0.

**Q.** What about the “Plant response rating, Sedge, Umbrella” value (sedge, umbrella) of the same compound?
**A.** The value was 0.

**Q.** And the “Foxtail, Giant plant response rating” value (foxtail, giant [17]; [20])?
**A.** Its value is 0.

**Q.** And the “Foxtail, Giant plant response rating” value (foxtail, giant [17]; [21])?
**A.** Its value is 0.

**Q.** What about the “Plant response rating, Rice” value (rice) of the same compound?
**A.** The value was 0.

**Q.** What does the source list for CCCc1cc(-c2ccc(C(F)(F)F)cc2)nn1Cc1ccnc(C(F)(F)F)c1 [Compound 113]?
**A.** Velvetleaf plant response rating (velvetleaf [1]; [18]): 100; Velvetleaf plant response rating (velvetleaf [1]; [19]): 40; Barnyardgrass plant response rating (barnyardgrass [2]; [18]): 20; Barnyardgrass plant response rating (barnyardgrass [2]; [19]): 10; Corn plant response rating (corn [3]; [18]): 20; Corn plant response rating (corn [3]; [19]): 20; Plant response rating, Ducksalad (ducksalad): 60; Morningglory plant response rating (morningglory [4]; [20]): 40; Morningglory plant response rating (morningglory [4]; [21]): 70; Corn plant response rating (corn [5]; [20]): 10; Corn plant response rating (corn [5]; [21]): 10; Pigweed plant response rating (pigweed [6]; [20]): 100; Pigweed plant response rating (pigweed [6]; [21]): 100; Plant response rating, Barnyardgrass (barnyardgrass [7]): 40; Morningglory plant response rating (morningglory [8]; [18]): 100; Morningglory plant response rating (morningglory [8]; [19]): 40; Velvetleaf plant response rating (velvetleaf [9]; [20]): 30; Velvetleaf plant response rating (velvetleaf [9]; [21]): 40; Barnyardgrass plant response rating (barnyardgrass [10]; [20]): 20; Barnyardgrass plant response rating (barnyardgrass [10]; [21]): 60; Wheat plant response rating (wheat [11]; [18]): 20; Wheat plant response rating (wheat [11]; [19]): 20; Crabgrass, Large plant response rating (crabgrass, large [12]; [20]): 80; Crabgrass, Large plant response rating (crabgrass, large [12]; [21]): 100; Pigweed plant response rating (pigweed [13]; [18]): 100; Pigweed plant response rating (pigweed [13]; [19]): 60; Crabgrass, Large plant response rating (crabgrass, large [14]; [18]): 40; Crabgrass, Large plant response rating (crabgrass, large [14]; [19]): 20; Wheat plant response rating (wheat [15]; [20]): 10; Wheat plant response rating (wheat [15]; [21]): 30; Foxtail, Giant plant response rating (foxtail, giant [16]; [18]): 40; Foxtail, Giant plant response rating (foxtail, giant [16]; [19]): 20; Plant response rating, Sedge, Umbrella (sedge, umbrella): 70; Foxtail, Giant plant response rating (foxtail, giant [17]; [20]): 80; Foxtail, Giant plant response rating (foxtail, giant [17]; [21]): 100; Plant response rating, Rice (rice): 30
